# Test results published in PMC9951859, “Investigation of α,ω-Disubstituted Polyamine-Cholic Acid Conjugates Identifies Hyodeoxycholic and Chenodeoxycholic Scaffolds as Non-Toxic, Potent Antimicrobials” (Antibiotics, 2023).
# Where “and” joins values, the source holds several entries; their conditions need not be identical. Identical values can stand only once. Entries after “also recorded” stand apart in the source; their conditions may differ. Like-named read-outs stand apart in the source and are kept apart here.
# Assays:
# [1] = tested on: Escherichia coli ATCC 25922; test: Antimicrobial MIC assay (CO-ADD) against E. coli; assay type: cell-based
# Excerpt: (§1) Antimicrobial evaluation against S. aureus (MRSA) (ATCC 43300), E. coli (ATCC 25922), K. pneumoniae (ATCC 700603), A. baumannii (ATCC 19606), C. albicans (ATCC 90028), and C. neoformans (ATCC 208821) was undertaken at the Community for Open Antimicrobial Drug Discovery at The University of Queensland (Australia) according to their standard protocols as reported previously.
# [2] = tested on: Klebsiella pneumoniae ATCC 700603; test: Antimicrobial MIC assay (CO-ADD) against K. pneumoniae; assay type: cell-based
# Excerpt: as §1
# [3] = tested on: Pseudomonas aeruginosa ATCC 27853; test: Antimicrobial MIC assay (CO-ADD) against P. aeruginosa; assay type: cell-based
# [4] = tested on: Acinetobacter baumannii ATCC 19606; test: Antimicrobial MIC assay (CO-ADD) against A. baumannii; assay type: cell-based
# Excerpt: as §1
# [5] = tested on: Candida albicans ATCC 90028; test: Antimicrobial MIC assay (CO-ADD) against C. albicans; assay type: cell-based; conditions: mean (n = 2)
# Excerpt: as §1
# [6] = tested on: Cryptococcus neoformans ATCC 208821; test: Antimicrobial MIC assay (CO-ADD) against C. neoformans; assay type: cell-based
# Excerpt: as §1
# [7] = Cytotoxicity assay on HEK293; assay type: cell-based, human; conditions: human, concentration at 50% cytotoxicity on HEK293, mean (n = 2), top dose tested 32 μg/mL
# Procedure: (§2) Cytotoxicity assays were conducted using the protocols previously reported.
# [8] = tested on: HEK293 human embryonic kidney cells; test: Cytotoxicity assay on HEK293; assay type: cell-based; conditions: concentration at 50% cytotoxicity on HEK293; mean (n = 2); top dose tested 32 μg/mL
# Procedure: as §2
# human red blood cells = test: Hemolytic assay; assay type: cell-based; conditions: concentration at 10% hemolytic activity on human red blood cells, mean (n = 2), top dose tested 32 μg/mL
# Procedure: Hemolytic assays were conducted using the protocols previously reported.
# erythrocytes = tested on: erythrocytes; parameters: method as in PMID 11806717; conditions: hemolytic activity; read-out: EC50 for hemoglobin release from erythrocytes; cited from earlier work
# [9] = tested on: B lymphoma Wehi-231 cells; parameters: method as in PMID 19883637; conditions: read-out: EC50 for propidium iodide entry; cited from earlier work
# [10] = tested on: Staphylococcus aureus ATCC 43300 (MRSA); test: Antimicrobial MIC assay (CO-ADD) against S. aureus MRSA; assay type: cell-based; conditions: Staphylococcus aureus, read-out: MIC S.a.
# Excerpt: as §1
# S. aureus ATCC 25923 [11] = test: Broth microdilution MIC (CA-SFM), S. aureus ATCC 25923; assay type: cell-based; conditions: Staphylococcus aureus, ATCC25923; classical microdilution, S. aureus ATCC 25923, 18 h at 37 °C
# Procedure: (§3) Additional antimicrobial evaluation against S. aureus (ATCC 25923), S. aureus MRSA (CF-Marseille) and Bacillus cereus (ATCC 11778) was determined in microplates using the standard broth dilution method in accordance with the recommendations of the Comité de l’AntibioGramme de la Société Française de Microbiologie (CA-SFM). Briefly, the minimal inhibitory concentrations (MICs) were determined with an inoculum of 10^5 CFU in 200 µL of MHB containing two-fold serial dilutions of each drug. […] To determine all MICs, the measurements were independently repeated in triplicate.
# [12] = tested on: S. aureus MRSA (CF-Marseille); test: Broth microdilution MIC (CA-SFM), S. aureus MRSA (CF-Marseille); assay type: cell-based; conditions: Staphylococcus aureus, 18 h
# Procedure: as §3
# [13] = tested on: Bacillus cereus ATCC 11778; test: Broth microdilution MIC (CA-SFM), Bacillus cereus; assay type: cell-based; conditions: ATCC11778; classical microdilution, Bacillus cereus ATCC 11778, 18 h at 37 °C
# Procedure: as §3
# S. aureus ATCC 25923 [14] = test: Minimum bactericidal concentration test, S. aureus ATCC 25923; assay type: cell-based, Staphylococcus aureus
# Procedure: (§4) A pure culture of a specified microorganism was grown overnight, then diluted in growth-supporting broth (typically Mueller Hinton II broth) to a concentration between 1 × 10^5 and 1 × 10^6 CFU/mL. A stock dilution of the antimicrobial test compound was made at approximately 100 times the expected, previously determined MIC. Further 1:1 dilution was made in 96 well microtiter plates. All dilutions of the test compound were inoculated with equal volumes of the specified microorganism (typically 100 µL). […] An aliquot of the positive control was plated and used to establish a baseline concentration of the microorganism used. The microtiter plates were then incubated at 37 °C for 24 h. Turbidity indicates growth of the microorganism, and the MIC is the lowest concentration where no growth was visually observed. To determine the minimum bactericidal concentration (MBC), the dilution representing the MIC and at least two of the more concentrated test product dilutions was plated on a solidified agar plate to determine the bacterial viability. The MBC is the lowest concentration where no growth is encountered when compared to the MIC dilution.
# [15] = tested on: S. aureus MRSA (CF-Marseille); test: Minimum bactericidal concentration test, S. aureus MRSA (CF-Marseille); assay type: cell-based, Staphylococcus aureus
# Procedure: as §4
# [16] = tested on: Bacillus cereus ATCC 11778; test: Minimum bactericidal concentration test, Bacillus cereus; assay type: cell-based
# Procedure: as §4
# S. aureus ATCC 25923 [17] = test: Real time growth curves, S. aureus ATCC 25923; assay type: cell-based, Staphylococcus aureus
# Procedure: (§5) Solutions of compound 7e at concentrations of 2, 4 and 16 µg/mL were tested each in triplicate against S. aureus ATCC 25923, S. aureus MRSA (CF-Marseille) and Bacillus cereus ATCC 11778. Typically, in a 96 well plate was placed 10 µL of 40, 80 and 320 µg/mL stock solutions of compound 7e as well as 190 µL of a 5 × 10^5 CFU/mL of the selected bacterial suspension in brain heart infusion (BHI) broth. Positive controls containing only 200 µL of a 5 × 10^5 CFU/mL of bacterial suspension in BHI and negative controls containing only 200 µL of BHI broth were added. The plate was incubated at 37 °C in a TECAN Spark Reader […] and real time bacterial growth was followed with OD590 nm measurements every 10 min during 19 h.
# [18] = tested on: S. aureus MRSA (CF-Marseille); test: Real time growth curves, S. aureus MRSA (CF-Marseille); assay type: cell-based, Staphylococcus aureus; conditions: BHI, 1 to 19 h, at 3.2 μM (4 µg/mL) and 12.7 μM (16 µg/mL)
# Procedure: as §5
# [19] = tested on: Bacillus cereus ATCC 11778; test: Real time growth curves, Bacillus cereus; assay type: cell-based
# Procedure: as §5
# S. aureus = test: ATP release bioluminescence assay; assay type: cell-based, Staphylococcus aureus; conditions: followed over 30 min after exposure, CTAB (1%) positive control
# Procedure: Solutions of the test compound 7e were prepared in DMSO at various concentrations. A suspension of growing S. aureus to be studied in Muller-Hinton II broth was prepared and incubated at 37 °C. An aliquot (90 µL) of this suspension was added to 10 µL of test compound solution and vortexed for 10 s. Luciferin–luciferase reagent (Yelen, France; 50 µL) was immediately added to this mixture, and luminescent signal quantified with an Infinite M200 microplate reader (Tecan) over a 30 min period; ATP concentration was quantified using internal sample addition. A similar procedure was used for the CTAB positive control.
# P. aeruginosa ATCC 27853 = test: Antibiotic enhancement of doxycycline; assay type: cell-based, Pseudomonas aeruginosa; conditions: doxycycline at 2 μg/mL
# Procedure: (§6) Restoring enhancer concentrations were determined with an inoculum of 5 × 10^5 CFU in […] of MH broth containing two-fold serial dilutions of each derivative in the presence of either doxycycline or erythromycin at 2 μg/mL. […] These measurements were independently repeated in triplicate.
# E. coli ATCC 25922 = test: Antibiotic enhancement of erythromycin; assay type: cell-based, Escherichia coli; conditions: erythromycin at 2 μg/mL
# Procedure: as §6
smiles,measurement,setting,value
"CC(C)[C@@H](CC[C@@H](C)[C@H]1CC[C@H]2[C@@H]3[C@H](O)C[C@H]4C[C@@H](NCCCNCCCCN)CC[C@]4(C)[C@H]3CC[C@]12C)OS(=O)(=O)O [Compound 1, Squalamine, reference compound]",MIC,"[1]; ATCC25922, Escherichia coli ATCC 25922, mean (n = 2), read-out: MIC E.c.",≤ 0.28 µM
same,MIC,"[1]; Escherichia coli ATCC 25922, mean (n = 2), read-out: MIC E.c.",≤0.28 µM
same,MIC,"[2]; ATCC700603, Klebsiella pneumoniae ATCC 700603, mean (n = 2), read-out: MIC K.p.",≤ 0.28 µM
same,MIC,"[2]; Klebsiella pneumoniae ATCC 700603, mean (n = 2), read-out: MIC K.p.",≤0.28 µM
same,MIC,"[3]; ATCC27853, Pseudomonas aeruginosa ATCC 27853, mean (n = 2), read-out: MIC P.a.",18 µM
same,MIC,"[4]; ATCC19606, Acinetobacter baumannii ATCC 19606, mean (n = 2), read-out: MIC A.b.",≤ 0.28 µM
same,MIC,"[4]; Acinetobacter baumannii ATCC 19606, mean (n = 2), read-out: MIC A.b.",≤0.28 µM
same,MIC,"[5]; ATCC90028, Candida albicans ATCC 90028, read-out: MIC C.a.",4.5 µM
same,MIC,"[6]; ATCC208821, Cryptococcus neoformans ATCC 208821, mean (n = 2), read-out: MIC C.n.",0.56 µM
same,IC50,[7],> 36 µM
same,Cytotoxicity (IC50),[8],lack of toxicity indicators
same,Hemolysis (HC10),human red blood cells,>36 µM
same,Hemolysis (HC10),human red blood cells; listed as squalamine,lack of toxicity indicators
same,EC50,erythrocytes,80 µM
same,EC50,[9],51 µM
"C[C@H](CCC(=O)NCCCNCCCCCCCCCCNCCCNC(=O)CC[C@@H](C)[C@H]1CC[C@H]2[C@@H]3C[C@H](O)[C@@H]4C[C@H](O)CC[C@]4(C)[C@H]3CC[C@]12C)[C@H]1CC[C@H]2[C@@H]3C[C@H](O)[C@@H]4C[C@H](O)CC[C@]4(C)[C@H]3CC[C@]12C.O=C(O)C(F)(F)F.O=C(O)C(F)(F)F [Compound 7e, N^1,N^10-Bis(3-((R)-4-((3R,5R,6S,8S,9S,10R,13R,14S,17R)-3,6-dihydroxy-10,13-dimethylhexadecahydro-1H-cyclopenta[a]phenanthren-17-yl)pentanamido)propyl)decane-1,10-diaminium 2,2,2-trifluoroacetate]",MIC,[10],≤ 0.2 µM
same,MIC,"[1]; Escherichia coli, ATCC25922, read-out: MIC E.c.",> 25 µM
same,MIC,"[2]; Klebsiella pneumoniae, ATCC700603, read-out: MIC K.p.",> 25 µM
same,MIC,"[3]; Pseudomonas aeruginosa, ATCC27853, read-out: MIC P.a.",> 25 µM
same,MIC,"[4]; Acinetobacter baumannii, ATCC19606, read-out: MIC A.b.",> 25 µM
same,MIC,"[5]; Candida albicans, ATCC90028, read-out: MIC C.a., Candida albicans ATCC 90028",≤ 0.2 µM
same,MIC,"[6]; Cryptococcus neoformans, ATCC208821, read-out: MIC C.n.",0.8 µM
same,IC50,[7]; HEK293 human embryonic kidney cells,> 25 µM
same,Hemolysis (HC10),human red blood cells,>25 µM
same,MIC,S. aureus ATCC 25923 [11],1.6 µM and 2 µg/mL
same,MIC,[12],3.2 µM and 4 µg/mL
same,MIC,[13],3.2 µM and 4 µg/mL
same,MBC/MIC ratio,S. aureus ATCC 25923 [14]; S. aureus ATCC 25923 (one of three Gram-positive strains),approximately one
same,minimum bactericidal concentration (MBC),"S. aureus ATCC 25923 [14]; S. aureus ATCC 25923, stated relative to MIC (1.6 μM, 2 μg/mL)",The same values were observed
same,MBC/MIC ratio,[15]; S. aureus MRSA (CF-Marseille) (one of three Gram-positive strains),approximately one
same,minimum bactericidal concentration (MBC),"[15]; S. aureus MRSA (CF-Marseille), stated relative to MIC (3.2 μM, 4 μg/mL)",The same values were observed
same,MBC/MIC ratio,[16]; Bacillus cereus ATCC 11778 (one of three Gram-positive strains),approximately one
same,minimum bactericidal concentration (MBC),"[16]; Bacillus cereus ATCC 11778, stated relative to MIC (3.2 μM, 4 μg/mL)",The same values were observed
same,time after which growth was exhibited,"S. aureus ATCC 25923 [17]; S. aureus (strain not stated), BHI, lowest tested concentration 1.6 μM (2 µg/mL)",13 h
same,real time growth inhibition (OD 590 nm),"S. aureus ATCC 25923 [17]; S. aureus ATCC 25923, BHI, 1 to 19 h, at 3.2 μM (4 µg/mL) and 12.7 μM (16 µg/mL)",inhibited all three strains
same,real time growth inhibition (OD 590 nm),[18],inhibited all three strains
same,time after which growth was exhibited,"[19]; B. cereus, BHI, lowest tested concentration 1.6 μM (2 µg/mL)",10 h
same,real time growth inhibition (OD 590 nm),"[19]; Bacillus cereus ATCC 11778, BHI, 1 to 19 h, at 3.2 μM (4 µg/mL) and 12.7 μM (16 µg/mL)",inhibited all three strains
same,"ATP release (extracellular ATP, bioluminescence)",S. aureus,inability of 7e to induce ATP release; also recorded: failed to cause ATP release
same,enhancement of antibiotic activity of doxycycline,P. aeruginosa ATCC 27853,No enhancement was observed
same,enhancement of antibiotic activity of erythromycin,E. coli ATCC 25922,No enhancement was observed
